Like-named read-outs stand apart in the source and are kept apart here.
Assays:
[1] = test system: ovarian cancer cells (PA-1); test: Cancer cell line growth inhibition (SRB assay); assay type: cell-based; details: read-out: Cancer Cell Line GI50 Range PA-1
TICs (Colon 12) = test: Colon tumor-initiating cell growth inhibition (Alamar Blue); assay type: cell-based; details: 216 h, 9 days, read-out: Tumor Initiating Cell GI50 Range Colon 12
human PLK4 = target: T1, human PLK4 (Homo sapiens, UniProt O00444); test: PLK4 inhibition assay (indirect ELISA); assay type: biochemical; details: 15 μM ATP
T1 construct: amino terminal GST fusion of residues 1-391 of human PLK4; made in house; host or cells: E. coli
T1 sequence (O00444 1-391): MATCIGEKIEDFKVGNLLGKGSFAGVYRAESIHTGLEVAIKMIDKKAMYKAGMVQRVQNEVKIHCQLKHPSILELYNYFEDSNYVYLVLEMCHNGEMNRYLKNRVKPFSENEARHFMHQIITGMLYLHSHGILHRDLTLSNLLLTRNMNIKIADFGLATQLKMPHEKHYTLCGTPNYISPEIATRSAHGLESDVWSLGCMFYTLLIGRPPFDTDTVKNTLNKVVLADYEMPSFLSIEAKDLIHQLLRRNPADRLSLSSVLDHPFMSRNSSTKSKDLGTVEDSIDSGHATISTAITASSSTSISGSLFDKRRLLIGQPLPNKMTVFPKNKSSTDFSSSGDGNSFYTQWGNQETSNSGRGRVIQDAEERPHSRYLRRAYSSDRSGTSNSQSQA
Outline: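 Dephosphorylated GST-PLK4 (residues 1-391, E. coli; 4 nM) was preincubated 15 min with compound, then reacted 30 min with 15 μM ATP in HEPES pH 7.4, MgCl2, Brij 35 on MBP-coated plates. Phospho-MBP was detected by antibody/HRP ELISA at 450 nm; IC50 from 10-point titration by 4-parameter logistic fit, or single 10 μM % inhibition.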

[2] = test system: colon cancer cells (HCT116); test: Cancer cell line growth inhibition (SRB assay); assay type: cell-based; details: Homo sapiens, HCT-116, read-out: Cancer Cell Line GI50 Range HCT116
TICs (Ovarian 2393A) = test: Ovarian tumor-initiating cell growth inhibition (Alamar Blue); assay type: cell-based; details: 144 h; ovarian TICs, 6 days, Alamar Blue; read-out: Tumor Initiating Cell GI50 Range Ovarain 2393A
human TTK = target: T2, human TTK (Homo sapiens, UniProt P33981); test: TTK inhibition assay (indirect ELISA); assay type: biochemical; details: read-out: TTK IC50 Range
T2 construct: amino terminal GST fusion of full length human TTK; purchased Invitrogen
T2 sequence (P33981 1-857): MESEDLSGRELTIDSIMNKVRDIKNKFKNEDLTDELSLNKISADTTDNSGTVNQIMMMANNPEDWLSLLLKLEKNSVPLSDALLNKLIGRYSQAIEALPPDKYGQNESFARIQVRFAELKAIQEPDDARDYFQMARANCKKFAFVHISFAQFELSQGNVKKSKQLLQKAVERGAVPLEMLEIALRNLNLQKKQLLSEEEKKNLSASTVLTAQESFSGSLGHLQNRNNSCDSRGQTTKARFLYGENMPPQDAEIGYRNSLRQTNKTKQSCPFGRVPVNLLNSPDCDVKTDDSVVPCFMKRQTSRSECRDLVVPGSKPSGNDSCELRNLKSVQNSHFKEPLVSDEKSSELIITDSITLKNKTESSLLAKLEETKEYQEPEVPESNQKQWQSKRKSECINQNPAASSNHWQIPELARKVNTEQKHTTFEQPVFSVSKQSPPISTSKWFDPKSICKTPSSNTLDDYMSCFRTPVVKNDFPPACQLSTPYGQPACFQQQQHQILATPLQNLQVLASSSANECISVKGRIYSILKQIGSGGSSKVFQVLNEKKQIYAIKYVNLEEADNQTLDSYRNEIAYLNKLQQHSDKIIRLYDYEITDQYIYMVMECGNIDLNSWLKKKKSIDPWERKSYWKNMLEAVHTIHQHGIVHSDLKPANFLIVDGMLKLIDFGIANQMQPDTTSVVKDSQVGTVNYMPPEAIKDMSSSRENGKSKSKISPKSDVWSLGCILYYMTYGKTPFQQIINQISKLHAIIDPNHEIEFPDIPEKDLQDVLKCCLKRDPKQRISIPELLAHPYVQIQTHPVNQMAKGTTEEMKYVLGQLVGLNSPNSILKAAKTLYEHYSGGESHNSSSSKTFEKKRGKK

Breast cancer cells = test: Cancer cell line growth inhibition (SRB assay); assay type: cell-based; details: Homo sapiens; MDA-MB-468; read-out: Cancer Cell Line GI50 Range MDA-MB-468
[3] = PA-1 ovarian cancer cells, SRB assay
[4] = HCT116 colon cancer cells, SRB assay

SMILES	GI50 [1, 3]	GI50 (TICs (Colon 12); colon TICs, Alamar Blue)	IC50 (human PLK4)	GI50 [2, 4]	GI50 (TICs (Ovarian 2393A))	GI50 ([1]; Homo sapiens, PA-1)	IC50 (human TTK)	GI50 (TICs (Colon 12); Colon 12 TICs)	GI50 [2]	GI50 (Breast cancer cells)
O=C(Nc1ccc2[nH]nc(-c3ccc(OC4CCN(C5COC5)CC4)cc3)c2c1)C(c1ccsc1)N1CCCC1 (centres unmarked) [Example A184, N-(3-(4-((1-(oxetan-3-yl)piperidin-4-yl)oxy)phenyl)-1H-indazol-5-yl)-2-(pyrrolidin-1-yl)-2-(thiophen-3-yl)acetamide]	< 100 nM	100 to 500 nM	< 50 nM	< 100 nM	< 100 nM	–	–	–	–	–
CN1CCC(Oc2ccc(-c3n[nH]c4ccc(NC(=O)C(c5ccccc5)C5CC5)cc34)cc2)CC1 (centres unmarked) [Example A138, 2-cyclopropyl-N-(3-(4-((1-methylpiperidin-4-yl)oxy)phenyl)-1H-indazol-5-yl)-2-phenylacetamide]	< 100 nM	< 100 nM	< 50 nM	< 100 nM	100 to 500 nM	–	–	–	–	–
COCCN1CCC(Oc2ccc(-c3n[nH]c4ccc(C(=O)N[C@H](c5ccsc5)C5CC5)cc34)cc2)CC1 [Example A154, (S)-N-(cyclopropyl(thiophen-3-yl)methyl)-3-(4-((1-(2-methoxyethyl)piperidin-4-yl)oxy)phenyl)-1H-indazole-5-carboxamide]	100 to 500 nM	< 100 nM	< 50 nM	< 100 nM	< 100 nM	–	–	–	–	–
CN1CCC(Oc2ccc(-c3n[nH]c4ccc(C(=O)NC(c5ccccc5Cl)C5CC5)cc34)cc2)CC1 (centres unmarked) [Example A150, N-((2-chlorophenyl)(cyclopropyl)methyl)-3-(4-((1-methylpiperidin-4-yl)oxy)phenyl)-1H-indazole-5-carboxamide]	< 100 nM	< 100 nM	< 50 nM	< 100 nM	< 100 nM	–	–	–	–	–
CO[C@@H](C(=O)Nc1ccc2[nH]nc(-c3ccc(OC4CCN(C=O)CC4)cc3)c2c1)c1ccccc1 [Example A169, (R)-N-(3-(4-((1-formylpiperidin-4-yl)oxy)phenyl)-1H-indazol-5-yl)-2-methoxy-2-phenylacetamide]	100 to 500 nM	> 500 nM	< 50 nM	100 to 500 nM	> 500 nM	–	–	–	–	–
O=C(NCC1(c2ccccc2)CCOCC1)c1ccc2[nH]nc(-c3ccc(N4[C@@H]5CC[C@H]4C[C@@H](O)C5)cc3)c2c1 [Example A492, 3-(4-((1R,3R,5S)-3-hydroxy-8-azabicyclo[3.2.1]octan-8-yI)phenyl)-N-((4-phenyltetrahydro-2H-pyran-4-yl)methyl)-1H-indazole-5-carboxamide]	–	–	< 50 nM	–	–	< 100 nM	< 100 nM	< 100 nM	< 100 nM	< 100 nM
Cc1ccccc1C(C(=O)Nc1ccc2[nH]nc(-c3ccc(OC4CCN(C)CC4)cc3)c2c1)N1CCCC1 (centres unmarked) [Example A133, N-(3-(4-((1-methylpiperidin-4-yl)oxy)phenyl)-1H-indazol-5-yl)-2-(pyrrolidin-1-yl)-2-(o-tolyl)acetamide]	< 100 nM	< 100 nM	< 50 nM	< 100 nM	100 to 500 nM	–	–	–	–	–
CCOC(C(=O)Nc1ccc2[nH]nc(-c3ccc(OC4CCN(C)CC4)cc3)c2c1)c1ccccc1 (centres unmarked) [Example A181, 2-ethoxy-N-(3-(4-((1-methylpiperidin-4-yl)oxy)phenyl)-1H-indazol-5-yl)-2-phenylacetamide]	100 to 500 nM	100 to 500 nM	< 50 nM	100 to 500 nM	> 500 nM	–	–	–	–	–
COCCN1CCC(Oc2ccc(-c3n[nH]c4ccc(NC(=O)C(c5ccsc5)N5CCCC5)cc34)cc2)CC1 (centres unmarked) [Example A175, N-(3-(4-((1-(2-methoxyethyl)piperidin-4-yl)oxy)phenyl)-1H-indazol-5-yl)-2-(pyrrolidin-1-yl)-2-(thiophen-3-yl)acetamide]	< 100 nM	100 to 500 nM	< 50 nM	< 100 nM	< 100 nM	–	–	–	–	–
O=C(Nc1ccc2[nH]nc(-c3ccc(OC4CCOCC4)cc3)c2c1)C(c1ccsc1)N1CCCC1 (centres unmarked) [Example A29, 2-(pyrrolidin-1-yl)-N-(3-(4-((tetrahydro-2H-pyran-4-yl)oxy)phenyl)-1H-indazol-5-yl)-2-(thiophen-3-yl)acetamide]	–	< 100 nM	< 50 nM	< 100 nM	100 to 500 nM	–	–	–	–	–
CC(C)C(NC(=O)c1ccc2[nH]nc(-c3ccc(O[C@H]4C[C@H]5CC[C@@H](C4)N5C)cc3)c2c1)c1ccccc1 (stereo partly drawn) [Example A285, N-(2-methyl-1-phenylpropyl)-3-(4-(((1R,3R,5S)-8-methyl-8-azabicyclo[3.2.1]octan-3-yl)oxy)phenyl)-1H-indazole-5-carboxamide]	–	–	< 50 nM	–	–	< 100 nM	< 100 nM	–	< 100 nM	100 to 500 nM
CC(C)C[C@H](NC(=O)c1ccc2[nH]nc(-c3ccc(N4CCN(C5COC5)CC4)cc3)c2c1)c1ccccn1 [Example A359, (S)-N-(3-methyl-1-(pyridin-2-yl)butyl)-3-(4-(4-(oxetan-3-yl)piperazin-1-yl)phenyl)-1H-indazole-5-carboxamide]	–	–	< 50 nM	–	–	< 100 nM	< 100 nM	–	< 100 nM	< 100 nM
CC(C)CC(NC(=O)c1ccc2[nH]nc(-c3ccc(OC4CCN(C5COC5)CC4)cc3)c2c1)c1ccccc1Cl (centres unmarked) [Example A355, N-(1-(2-chlorophenyl)-3-methylbutyl)-3-(4-((1-(oxetan-3-yl)piperidin-4-yl)oxy)phenyl)-1H-indazole-5-carboxamide]	–	–	< 50 nM	–	–	100 to 500 nM	< 100 nM	–	100 to 500 nM	100 to 500 nM
O=C(NCC1(c2ccccc2)CCOCC1)c1ccc2[nH]nc(-c3ccc(N4[C@@H]5COC[C@H]4C[C@@H](O)C5)cc3)c2c1 [Example A503, 3-(4-((1R,5S,7S)-7-hydroxy-3-oxa-9-azabicyclo[3.3.1]nonan-9-yl)phenyl)-N-((4-phenyltetrahydro-2H-pyran-4-yl)methyl)-1H-indazole-5-carboxamide]	–	–	< 50 nM	–	–	< 100 nM	< 100 nM	–	< 100 nM	100 to 500 nM
O=C(N[C@H](CCO)c1ccccc1)c1ccc2[nH]nc(-c3ccc(N4[C@@H]5CC[C@H]4COC5)cc3)c2c1 [Example A423, 3-(4-((1R,5S)-3-oxa-8-azabicyclo[3.2.1]octan-8-yl)phenyl)-N-((R)-3-hydroxy-1-phenylpropyl)-1H-indazole-5-carboxamide]	–	–	< 50 nM	–	–	< 100 nM	< 100 nM	–	< 100 nM	< 100 nM
CC(C)CC(NC(=O)c1ccc2[nH]nc(-c3ccc(OC4CC5CCC(C4)N5C4COC4)cc3)c2c1)c1ccccn1 [Example A373, N-(3-methyl-1-(pyridin-2-yl)butyl)-3-(4-(((1R,3R,5S)-8-(oxetan-3-yl)-8-azabicyclo[3.2.1]octan-3-yl)oxy)phenyl)-1H-indazole-5-carboxamide]	–	–	< 50 nM	–	–	100 to 500 nM	< 100 nM	–	100 to 500 nM	100 to 500 nM
